Toxic doses and inconclusive results are not listed.
Tested on: L1210 leukemia ip in BDF1 mice, survival T/C
Experiment: NCI In Vivo Anticancer Drug Screen. Data for tumor model L1210 Leukemia (intraperitoneal) in B6D2F1 (BDF1) mice
Conditions: higher = longer survival
Summary of the method: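 Value reflects the ratio of survival in compound-treated mice to survival in vehicle-treated controls, with both groups carrying the same transplanted tumor.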

[1] = endpoint: mean survival time, dose: 50.0 mg/kg/injection, schedule: Q01DX009 (ip), vehicle: other
[2] = endpoint: mean survival time, dose: 100.0 mg/kg/injection, schedule: Q01DX009 (ip), vehicle: other
[3] = endpoint: mean survival time, dose: 100.0 mg/kg/injection, schedule: Q04DX003 (ip), vehicle: other
[4] = endpoint: mean survival time, dose: 200.0 mg/kg/injection, schedule: Q04DX003 (ip), vehicle: other
[5] = endpoint: mean survival time, dose: 100.0 mg/kg/injection, schedule: Q01DX001 (ip), vehicle: carboxymethylcellulose (CMC)
[6] = endpoint: mean survival time, dose: 200.0 mg/kg/injection, schedule: Q01DX001 (ip), vehicle: carboxymethylcellulose (CMC)
[7] = endpoint: mean survival time, dose: 400.0 mg/kg/injection, schedule: Q01DX001 (ip), vehicle: carboxymethylcellulose (CMC)
[8] = endpoint: mean survival time, dose: 100.0 mg/kg/injection, schedule: Q01DX001 (ip), vehicle: saline
[9] = endpoint: mean survival time, dose: 200.0 mg/kg/injection, schedule: Q01DX001 (ip), vehicle: saline
[10] = endpoint: mean survival time, dose: 400.0 mg/kg/injection, schedule: Q01DX001 (ip), vehicle: saline
[11] = endpoint: mean survival time, dose: 100.0 mg/kg/injection, schedule: Q01DX009 (ip), vehicle: Klucel (hydroxypropylcellulose) (HPC)
[12] = endpoint: mean survival time, dose: 100.0 mg/kg/injection, schedule: Q04DX003 (ip), vehicle: Klucel (hydroxypropylcellulose) (HPC)
[13] = endpoint: mean survival time, dose: 200.0 mg/kg/injection, schedule: Q01DX009 (ip), vehicle: Klucel (hydroxypropylcellulose) (HPC)
[14] = endpoint: mean survival time, dose: 200.0 mg/kg/injection, schedule: Q04DX003 (ip), vehicle: Klucel (hydroxypropylcellulose) (HPC)
[15] = endpoint: mean survival time, dose: 400.0 mg/kg/injection, schedule: Q04DX003 (ip), vehicle: Klucel (hydroxypropylcellulose) (HPC)
[16] = endpoint: mean survival time, dose: 100.0 mg/kg/injection, schedule: Q04DX003 (ip), vehicle: saline
[17] = endpoint: mean survival time, dose: 50.0 mg/kg/injection, schedule: Q04DX002 (ip), vehicle: Klucel (hydroxypropylcellulose) (HPC)

## CCCCNc1ccc([N+](=O)[O-])cc1[N+](=O)[O-]
[1]
  T/C: 104 % of control
[2]
  T/C: 93 % of control
[3]
  T/C: 104 % of control
endpoint: mean survival time, dose: 200.0 mg/kg/injection, schedule: Q01DX009 (ip), vehicle: other
  T/C: 104 % of control
[4]
  T/C: 96 % of control

## CC(C)(C)NC1CCCC1Cl (centres undefined)
endpoint: mean survival time, dose: 100.0 mg/kg/injection, schedule: Q01DX009 (ip), vehicle: saline with Tween-80
  T/C: 106 % of control
endpoint: mean survival time, dose: 200.0 mg/kg/injection, schedule: Q01DX009 (ip), vehicle: saline with Tween-80
  T/C: 102 % of control

## O=C(Nc1c(Br)cc2c(c1Br)Cc1cc([N+](=O)[O-])ccc1-2)C(Cl)Cl
[5]
  T/C: 98 % of control
[6]
  T/C: 107 % of control
[7]
  T/C: 109 % of control

## CCCCS.[Pb]
endpoint: mean survival time, dose: 100.0 mg/kg/injection, schedule: Q04DX003 (ip), vehicle: saline with Tween-80
  T/C: 95 % of control
endpoint: mean survival time, dose: 200.0 mg/kg/injection, schedule: Q04DX003 (ip), vehicle: saline with Tween-80
  T/C: 95 % of control
endpoint: mean survival time, dose: 400.0 mg/kg/injection, schedule: Q04DX003 (ip), vehicle: saline with Tween-80
  T/C: 96 % of control

## O=C(Nc1cnccn1)C(F)(F)F
[8]
  T/C: 105 % of control
[9]
  T/C: 97 % of control
[10]
  T/C: 105 % of control

## CN(C)c1nc(N)nc2c1ncn2C1OC(CO)CC1O (centres undefined)
[5]
  T/C: 120 % of control
[6]
  T/C: 98 % of control
[7]
  T/C: 101 % of control

## CC(C)(Br)C(=O)c1ccc(-c2ccccc2)cc1
endpoint: mean survival time, dose: 25.0 mg/kg/injection, schedule: Q01DX009 (ip), vehicle: water
  T/C: 101 % of control
endpoint: mean survival time, dose: 50.0 mg/kg/injection, schedule: Q01DX009 (ip), vehicle: water
  T/C: 101 % of control
[11]
  T/C: 89 % of control
endpoint: mean survival time, dose: 100.0 mg/kg/injection, schedule: Q01DX009 (ip), vehicle: water
  T/C: 98 % of control
[12]
  T/C: 100 % of control
[13]
  T/C: 87 % of control
endpoint: mean survival time, dose: 200.0 mg/kg/injection, schedule: Q01DX009 (ip), vehicle: water
  T/C: 95 % of control
[14]
  T/C: 94 % of control
endpoint: mean survival time, dose: 400.0 mg/kg/injection, schedule: Q01DX009 (ip), vehicle: Klucel (hydroxypropylcellulose) (HPC)
  T/C: 92 % of control
endpoint: mean survival time, dose: 400.0 mg/kg/injection, schedule: Q01DX009 (ip), vehicle: water
  T/C: 92 % of control
[15]
  T/C: 91 % of control

## CCOC(=O)CC(C(=O)O)=C(c1ccccc1)c1ccccc1
endpoint: mean survival time, dose: 50.0 mg/kg/injection, schedule: Q01DX001 (ip), vehicle: carboxymethylcellulose (CMC)
  T/C: 98 % of control
[5]
  T/C: 98 % of control
[6]
  T/C: 93 % of control
[7]
  T/C: 93 % of control

## CC(C)=CCC/C(C)=C/CN
endpoint: mean survival time, dose: 25.0 mg/kg/injection, schedule: Q04DX003 (ip), vehicle: saline
  T/C: 101 % of control
endpoint: mean survival time, dose: 50.0 mg/kg/injection, schedule: Q04DX003 (ip), vehicle: saline
  T/C: 92 % of control
endpoint: mean survival time, dose: 100.0 mg/kg/injection, schedule: Q01DX009 (ip), vehicle: saline
  T/C: 95 % of control
[16]
  T/C: 97 % of control

## O=C(/C=C\c1ccccc1)N1CCc2ccccc2C1
endpoint: mean survival time, dose: 75.0 mg/kg/injection, schedule: Q04DX003 (ip), vehicle: saline
  T/C: 100 % of control
endpoint: mean survival time, dose: 300.0 mg/kg/injection, schedule: Q04DX003 (ip), vehicle: saline
  T/C: 101 % of control

## CC(=O)OCC(OS(=O)(=O)c1ccc(C)cc1)C(OC(C)=O)C(OC(C)=O)C(COC(C)=O)OS(=O)(=O)c1ccc(C)cc1 (centres undefined)
[17]
  T/C: 90 % of control
endpoint: mean survival time, dose: 100.0 mg/kg/injection, schedule: Q04DX002 (ip), vehicle: Klucel (hydroxypropylcellulose) (HPC)
  T/C: 101 % of control
endpoint: mean survival time, dose: 200.0 mg/kg/injection, schedule: Q04DX002 (ip), vehicle: Klucel (hydroxypropylcellulose) (HPC)
  T/C: 101 % of control

## Nc1cc2c(cc1N)C(=O)c1ccccc1C2=O
endpoint: mean survival time, dose: 100.0 mg/kg/injection, schedule: Q01DX001 (ip), vehicle: acetone
  T/C: 95 % of control
[12]
  T/C: 101 % of control
endpoint: mean survival time, dose: 200.0 mg/kg/injection, schedule: Q01DX001 (ip), vehicle: acetone
  T/C: 98 % of control
[14]
  T/C: 94 % of control
endpoint: mean survival time, dose: 400.0 mg/kg/injection, schedule: Q01DX001 (ip), vehicle: acetone
  T/C: 102 % of control
[15]
  T/C: 90 % of control

## FC(F)(Cl)c1nc2nc(Cl)c(Cl)nc2[nH]1
[1]
  T/C: 96 % of control
[2]
  T/C: 122 % of control
[3]
  T/C: 114 % of control
[4]
  T/C: 123 % of control
endpoint: mean survival time, dose: 400.0 mg/kg/injection, schedule: Q04DX003 (ip), vehicle: other
  T/C: 96 % of control

## c1cc[c]([Pb]([c]2ccccc2)([c]2ccccc2)[n]2c3ccccc3c3ccccc32)cc1
endpoint: mean survival time, dose: 1.56 mg/kg/injection, schedule: Q01DX009 (ip), vehicle: saline with Tween-80
  T/C: 99 % of control
endpoint: mean survival time, dose: 3.12 mg/kg/injection, schedule: Q01DX009 (ip), vehicle: saline with Tween-80
  T/C: 98 % of control
endpoint: mean survival time, dose: 6.25 mg/kg/injection, schedule: Q01DX009 (ip), vehicle: saline with Tween-80
  T/C: 91 % of control

## CC1=NN(c2ccccc2)C(=O)C1N=Nc1ccc([As](=O)(O)O)c(O)c1 (centres undefined)
[8]
  T/C: 96 % of control
[9]
  T/C: 102 % of control
[10]
  T/C: 100 % of control

## CCOC(=O)c1[nH]c(C)nc1/N=N/N(C)C
endpoint: median survival time, dose: 25.0 mg/kg/injection, schedule: Q01DX009 (ip), vehicle: Klucel (hydroxypropylcellulose) (HPC)
  T/C: 116 % of control

## CSc1ccccc1C=Nc1ccccc1O
endpoint: mean survival time, dose: 100.0 mg/kg/injection, schedule: Q01DX001 (ip), vehicle: saline with Tween-80
  T/C: 101 % of control
endpoint: mean survival time, dose: 200.0 mg/kg/injection, schedule: Q01DX001 (ip), vehicle: saline with Tween-80
  T/C: 98 % of control
endpoint: mean survival time, dose: 400.0 mg/kg/injection, schedule: Q01DX001 (ip), vehicle: saline with Tween-80
  T/C: 103 % of control

## CCCNC1=C(C)C(=O)C2=C(C1=O)[C@H](COC(N)=O)[C@]1(OC)[C@@H]3N[C@@H]3CN21
endpoint: mean survival time, dose: 2.9 mg/kg/injection, schedule: Q01DX001 (ip), vehicle: acetone
  T/C: 109 % of control
endpoint: mean survival time, dose: 4.3 mg/kg/injection, schedule: Q01DX001 (ip), vehicle: acetone
  T/C: 117 % of control
endpoint: mean survival time, dose: 4.5 mg/kg/injection, schedule: Q01DX009 (ip), vehicle: acetone
  T/C: 118 % of control
endpoint: mean survival time, dose: 6.6 mg/kg/injection, schedule: Q01DX001 (ip), vehicle: saline
  T/C: 108 % of control
endpoint: mean survival time, dose: 7.5 mg/kg/injection, schedule: Q01DX009 (ip), vehicle: acetone
  T/C: 86 % of control
endpoint: mean survival time, dose: 9.9 mg/kg/injection, schedule: Q01DX001 (ip), vehicle: saline
  T/C: 101 % of control
endpoint: mean survival time, dose: 15.0 mg/kg/injection, schedule: Q01DX001 (ip), vehicle: acetone
  T/C: 165 % of control
endpoint: mean survival time, dose: 15.0 mg/kg/injection, schedule: Q01DX001 (ip), vehicle: saline
  T/C: 110 % of control
endpoint: mean survival time, dose: 22.0 mg/kg/injection, schedule: Q01DX001 (ip), vehicle: acetone
  T/C: 92 % of control
endpoint: mean survival time, dose: 22.0 mg/kg/injection, schedule: Q01DX001 (ip), vehicle: saline
  T/C: 113 % of control

## Cc1ccc(NC(=O)C(Cl)Cl)cc1Cl
endpoint: mean survival time, dose: 50.0 mg/kg/injection, schedule: Q01DX009 (ip), vehicle: Klucel (hydroxypropylcellulose) (HPC)
  T/C: 103 % of control
[11]
  T/C: 107 % of control
[13]
  T/C: 98 % of control

## O=[N+]([O-])/C=C/c1c(O)c(Cl)cc(Cl)c1Cl
endpoint: mean survival time, dose: 12.5 mg/kg/injection, schedule: Q04DX002 (ip), vehicle: Klucel (hydroxypropylcellulose) (HPC)
  T/C: 92 % of control
endpoint: mean survival time, dose: 25.0 mg/kg/injection, schedule: Q04DX002 (ip), vehicle: Klucel (hydroxypropylcellulose) (HPC)
  T/C: 92 % of control
[17]
  T/C: 95 % of control

## Cc1cc(C)[nH]c(=S)n1
endpoint: mean survival time, dose: 100.0 mg/kg/injection, schedule: Q04DX002 (ip), vehicle: saline
  T/C: 101 % of control
[16]
  T/C: 97 % of control
endpoint: mean survival time, dose: 200.0 mg/kg/injection, schedule: Q04DX002 (ip), vehicle: saline
  T/C: 101 % of control
endpoint: mean survival time, dose: 200.0 mg/kg/injection, schedule: Q04DX003 (ip), vehicle: saline
  T/C: 89 % of control
endpoint: mean survival time, dose: 400.0 mg/kg/injection, schedule: Q04DX002 (ip), vehicle: saline
  T/C: 94 % of control

## CCCCCCCCCCCCCCCCCCSc1ccc2ccccc2c1
[12]
  T/C: 105 % of control
[14]
  T/C: 94 % of control
[15]
  T/C: 91 % of control

## CC(C)NC(=S)Nc1ccccc1
endpoint: mean survival time, dose: 75.0 mg/kg/injection, schedule: Q01DX001 (ip), vehicle: other
  T/C: 102 % of control

Source: PubChem BioAssay AID248 (DTP/NCI, 2004)
